Results: ChEMBL document CHEMBL1201862, “PubChem BioAssay data set” (2004)
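Grown in 96-well plates, cells were treated for 48 hours with each compound at five concentrations. Insufficient inhibition: endpoint recorded as highest concentration tested. At the GI50, growth is halved.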 Active and inactive are the calls of the source. No stated cut-off is given here; in the data, active = GI50 up to about 1.1 µM and inactive = higher.

Key:
Experiment in all cases: inhibition of tumour cell growth, NCI panel, 48 h
SK-MEL-28 = test system: SK-MEL-28
COLO 205 = test system: COLO 205
LOX IMVI = test system: LOX IMVI
K562 = test system: K562
CAKI-1 = test system: CAKI-1
SK-OV-3 = test system: SK-OV-3
SW-620 = test system: SW-620
ACHN = test system: ACHN
SN12C = test system: SN12C
MOLT-4 = test system: MOLT-4
OVCAR-4 = test system: OVCAR-4
HCT-116 = test system: HCT-116
UACC-62 = test system: UACC-62
EKVX = test system: EKVX
NCI-H23 = test system: NCI-H23
TK-10 = test system: TK-10
SF-539 = test system: SF-539
HOP-92 = test system: HOP-92

Measured: GI50

Cc1ccc(NC(=O)CSc2nnc(Cc3ccccc3)o2)cc1
inactive: SK-MEL-28 > 100 µM | COLO 205 > 100 µM | LOX IMVI > 100 µM | K562 > 100 µM | CAKI-1 > 100 µM | SK-OV-3 > 100 µM | SW-620 > 100 µM | ACHN > 100 µM | SN12C > 100 µM | MOLT-4 > 100 µM | OVCAR-4 > 100 µM | HCT-116 > 100 µM | UACC-62 > 100 µM | EKVX > 100 µM | NCI-H23 > 100 µM | TK-10 > 100 µM | SF-539 > 100 µM

Cc1ccc(S(=O)(=O)NC(C)C(=O)O)cc1 (centres undefined)
inactive: SK-MEL-28 > 100 µM | COLO 205 > 100 µM | LOX IMVI > 100 µM | CAKI-1 > 100 µM | SK-OV-3 > 100 µM | SW-620 > 100 µM | ACHN > 100 µM | SN12C > 100 µM | MOLT-4 > 100 µM | OVCAR-4 > 100 µM | UACC-62 > 100 µM | HOP-92 > 100 µM | EKVX > 100 µM | NCI-H23 > 100 µM | TK-10 > 100 µM | SF-539 > 100 µM

COc1cc2ccc3c4cc(OC)c(OCc5ccccc5)cc4cnc3c2cc1OC
inactive: SK-MEL-28 > 100 µM | COLO 205 > 100 µM | K562 > 100 µM | CAKI-1 > 100 µM | SK-OV-3 > 100 µM | SW-620 > 100 µM | ACHN > 100 µM | SN12C > 100 µM | MOLT-4 70.6 µM | OVCAR-4 > 100 µM | UACC-62 > 100 µM | EKVX > 100 µM | NCI-H23 > 100 µM | TK-10 > 100 µM

Cn1c(O)c(C(=O)NC2CCCCC2)c(=O)n(C)c1=S
inactive: SK-MEL-28 4.61 µM | COLO 205 1.94 µM | LOX IMVI 8.81 µM | CAKI-1 5.89 µM | SK-OV-3 5.64 µM | SW-620 5.79 µM | ACHN 3.57 µM | SN12C 6.12 µM | MOLT-4 3.56 µM | OVCAR-4 6.75 µM | UACC-62 4.57 µM | HOP-92 3.59 µM | NCI-H23 4.4 µM | TK-10 6.32 µM | SF-539 9.16 µM

Cc1cccc(NC2=NCCO2)c1Cl
inactive: SK-MEL-28 > 100 µM | COLO 205 > 100 µM | K562 > 100 µM | SK-OV-3 > 100 µM | SW-620 > 100 µM | ACHN > 100 µM | SN12C > 100 µM | MOLT-4 > 100 µM | OVCAR-4 > 100 µM | HCT-116 > 100 µM | UACC-62 > 100 µM | HOP-92 32.7 µM | EKVX > 100 µM | NCI-H23 > 100 µM | TK-10 > 100 µM | SF-539 > 100 µM

CCNc1nnc(CSc2nc(-c3ccccc3)c(-c3ccccc3)[nH]2)s1
inactive: SK-MEL-28 14.6 µM | COLO 205 19.1 µM | LOX IMVI 16.5 µM | SK-OV-3 20.1 µM | SW-620 20.2 µM | ACHN 23.3 µM | SN12C 20.8 µM | MOLT-4 20.5 µM | OVCAR-4 30.5 µM | HCT-116 22 µM | HOP-92 15.8 µM | EKVX 14.3 µM | NCI-H23 26.1 µM | TK-10 18.5 µM | SF-539 18.7 µM

CCc1cccc(CC)c1NC(=O)C1=CNC(C)=C(C(=O)Nc2c(CC)cccc2CC)C1c1ccc(O)c(OC)c1 (centres undefined)
inactive: SK-MEL-28 33.3 µM | COLO 205 56.2 µM | LOX IMVI 31.5 µM | K562 31.4 µM | CAKI-1 39.8 µM | SK-OV-3 > 100 µM | SW-620 30.3 µM | ACHN 32.5 µM | SN12C 57.8 µM | MOLT-4 22.3 µM | OVCAR-4 23.9 µM | HOP-92 42.4 µM | EKVX 35.2 µM | NCI-H23 36.6 µM | TK-10 47.6 µM | SF-539 17.6 µM

O=C1CC(c2c(-c3ccccc3)[nH]c3ccccc23)C(=O)N1 (centres undefined)
inactive: SK-MEL-28 > 100 µM | K562 > 100 µM | CAKI-1 71.9 µM | SK-OV-3 > 100 µM | SW-620 > 100 µM | ACHN > 100 µM | MOLT-4 > 100 µM | OVCAR-4 > 100 µM | HCT-116 > 100 µM | UACC-62 89.3 µM | EKVX > 100 µM | NCI-H23 > 100 µM | TK-10 > 100 µM | SF-539 > 100 µM

O=C1C=CC(S(=O)(=O)C2=C/C(=C/Nc3ccc(Cl)cc3)C(=O)C=C2)=C/C1=C/Nc1ccc(Cl)cc1
inactive: SK-MEL-28 > 100 µM | COLO 205 > 100 µM | LOX IMVI > 100 µM | K562 > 100 µM | CAKI-1 > 100 µM | SK-OV-3 > 100 µM | SW-620 > 100 µM | ACHN > 100 µM | SN12C > 100 µM | MOLT-4 > 100 µM | OVCAR-4 > 100 µM | HCT-116 > 100 µM | UACC-62 > 100 µM | HOP-92 > 100 µM | EKVX > 100 µM | NCI-H23 > 100 µM | TK-10 > 100 µM | SF-539 > 100 µM

FC(F)(F)C12C34C=CC5(CCC6(C=CC1(CC3)O6)C52C(F)(F)F)O4 (centres undefined)
inactive: SK-MEL-28 > 100 µM | COLO 205 > 100 µM | LOX IMVI > 100 µM | K562 > 100 µM | CAKI-1 > 100 µM | SK-OV-3 > 100 µM | SW-620 > 100 µM | ACHN > 100 µM | SN12C > 100 µM | MOLT-4 > 100 µM | OVCAR-4 > 100 µM | HCT-116 > 100 µM | HOP-92 > 100 µM | EKVX > 100 µM | NCI-H23 > 100 µM | TK-10 > 100 µM | SF-539 > 100 µM

CCOc1ccccc1NC(=O)CCc1nnc2s/c(=C\CCc3ccccc3)c(=O)n12
inactive: SK-MEL-28 > 100 µM | COLO 205 > 100 µM | LOX IMVI > 100 µM | K562 > 100 µM | CAKI-1 > 100 µM | SK-OV-3 > 100 µM | SW-620 > 100 µM | ACHN > 100 µM | SN12C > 100 µM | MOLT-4 > 100 µM | OVCAR-4 > 100 µM | HCT-116 > 100 µM | UACC-62 > 100 µM | HOP-92 > 100 µM | NCI-H23 > 100 µM | TK-10 > 100 µM | SF-539 > 100 µM

CN1C(=O)N(C)C(N2CCCC2)c2c1nc1ccccn1c2=O (centres undefined)
inactive: SK-MEL-28 > 100 µM | COLO 205 > 100 µM | LOX IMVI 36.5 µM | K562 53.1 µM | SK-OV-3 78.5 µM | SW-620 60.5 µM | ACHN > 100 µM | SN12C 54.3 µM | MOLT-4 > 100 µM | OVCAR-4 58.1 µM | HCT-116 60.4 µM | UACC-62 67 µM | HOP-92 42.7 µM | EKVX 43.3 µM | NCI-H23 > 100 µM | TK-10 > 100 µM | SF-539 33.3 µM

Cn1c(N)[n+](C(=O)OCc2ccccc2)c(=O)c2c1ncn2C(=O)OCc1ccccc1
inactive: SK-MEL-28 > 100 µM | COLO 205 > 100 µM | LOX IMVI > 100 µM | K562 > 100 µM | CAKI-1 53 µM | SK-OV-3 28.9 µM | SW-620 > 100 µM | ACHN 24.4 µM | SN12C > 100 µM | MOLT-4 > 100 µM | OVCAR-4 65.2 µM | HCT-116 52.2 µM | UACC-62 > 100 µM | EKVX 89.5 µM | NCI-H23 46.2 µM | TK-10 46.7 µM

COCN1COCN/C1=N\C#N
inactive: SK-MEL-28 > 100 µM | COLO 205 41 µM | K562 88.3 µM | CAKI-1 > 100 µM | SK-OV-3 > 100 µM | SW-620 22.5 µM | ACHN > 100 µM | SN12C > 100 µM | MOLT-4 > 100 µM | OVCAR-4 75.5 µM | HCT-116 > 100 µM | UACC-62 > 100 µM | HOP-92 > 100 µM | EKVX > 100 µM | NCI-H23 > 100 µM | TK-10 > 100 µM | SF-539 > 100 µM

CC(CCCOC(c1ccccc1)(c1ccccc1)c1ccccc1)OC(=O)Nc1cc([N+](=O)[O-])cc([N+](=O)[O-])c1 (centres undefined)
inactive: SK-MEL-28 28.2 µM | LOX IMVI 29.9 µM | K562 32.1 µM | CAKI-1 18.5 µM | SK-OV-3 14.8 µM | SW-620 33.5 µM | ACHN 27.7 µM | SN12C 41.5 µM | MOLT-4 28.8 µM | OVCAR-4 37.5 µM | HCT-116 33.9 µM | UACC-62 16.9 µM | EKVX 32 µM | NCI-H23 29 µM | SF-539 38 µM

CC(=O)OC[C@]1(C)CCCC2(C)C1CCC1C=C(C)[C@H]3CCC12C3 (some centres undefined)
inactive: SK-MEL-28 60.5 µM | COLO 205 38.5 µM | LOX IMVI 47.5 µM | K562 > 100 µM | CAKI-1 > 100 µM | SK-OV-3 44.1 µM | SW-620 31.6 µM | ACHN > 100 µM | SN12C 40.3 µM | MOLT-4 > 100 µM | OVCAR-4 > 100 µM | HCT-116 47.4 µM | UACC-62 56.9 µM | NCI-H23 94.4 µM | TK-10 > 100 µM | SF-539 25.5 µM

CC(=O)OC1C/C(C)=C/[C@H](O)CC(C)/C=C/[C@@]2(C)CCC(C(C)(C)O)C12 (some centres undefined)
inactive: SK-MEL-28 > 100 µM | COLO 205 > 100 µM | LOX IMVI > 100 µM | K562 > 100 µM | CAKI-1 > 100 µM | SK-OV-3 > 100 µM | SW-620 > 100 µM | ACHN > 100 µM | SN12C > 100 µM | MOLT-4 > 100 µM | OVCAR-4 > 100 µM | HCT-116 > 100 µM | UACC-62 > 100 µM | HOP-92 > 100 µM | EKVX > 100 µM | NCI-H23 > 100 µM | TK-10 > 100 µM | SF-539 > 100 µM
